“Also recorded” adds a separate entry of the source. Where two headings read alike, the source gives them in different places. Marks after values point to notes of the source that are not given here.
Assays:
[1] = test system: collagen-induced arthritis in the rats; assay: Collagen-induced arthritis in the rats, hind paw swelling; type: in vivo, rat
From the text: Animal models of RA need to reflect at least some of the features found in human RA (Billingham et al., 1979). Collagen-induced arthritis (CIA) has been proposed to meet these requirements (Durie et al., 1994). Especially the similarity in the joint pathophysiology makes this animal model most attractive for the evaluation of anti-rheumatic drugs (Takeshita et al., 1997). Synovial hyperplasia, which is an integral part of the disease, parallels the migration of leukocytes into the joint space; erosion and destruction of the cartilage surface can also be found (Holmdahl et al., 1985). The rat CIA, originally described by Trentham et al. (1977), was established and extensive studies with CsA were done, including three-dimensional magnetic resonance imaging (MRI) and histology (Beckmann et al., 1995; 1998). Differences in the susceptibility of several rat strains for the development of the disease have been reported (Cremer et al., 1995; Kamada et al., 1997; Knoerzer et al., 1997).
(§1) Method: For this study, COMPOUND A and COX-inhibitor Diclofenac are dissolved in a solvent containing 5% of glucose (5 ml/kg). Compounds are given orally once a day. Female rats of the WAGxBUF/F1 crossbred strain (weight 130 g) are used. The animals are divided into several groups, one placebo group (N=8), and four treatment groups (each N=7-8). Treatment starts on peak of disease (day 0) and continues for 11 days. Swelling is assessed at regular time intervals by measuring the external thickness of the hind paws in the region of the metatarsals using a micro-caliper. Tissue samples for histological evaluation are obtained at the end of the in vivo experiment, 5 h after the last oral dose of COMPOUND A or placebo on day 11.
Results shown are means±SEM of groups of each 4-8 animals of paw diameters in mm on day-12 (before the immunization with Type II collagen in incomplete Freund's adjuvant), day 0 (start of treatment) and day 11 (end of treatment).
The data shown represent the ability of the treatment (COMPOUND A at 4 different increasing doses) to reduce the volume of the hind paw measured at day 2, day 7 and day 11.

[2] = test system: collagen-induced arthritis in the rats; assay: Collagen-induced arthritis in the rats, histological evaluation of hind paws; type: in vivo, rat; details: day 11
Method: as §1
Hind paws from control arthritic rats (vehicle-treated), taken post-mortem at the end of day 11 of the treatment, obtained relatively high histological scorings compared to histological scores of animals treated with COMPOUND A (0.3, 1, 3 and 9 mg/kg) or Diclofenac (1 mg/kg).

[3] = test system: established Adjuvant-induced arthritis in rats; assay: Established adjuvant-induced arthritis in rats (therapeutic dosing schedule); type: in vivo, rat; details: for ED50: Rattus norvegicus, read-out: Estimated ED50
From the text: Adjuvant arthritis can be treated using two different dosing schedules; either starting at the time of immunization with adjuvant (prophylactic dosing) or from day 15 when the arthritic response is already established (therapeutic dosing). It is more difficult to inhibit adjuvant arthritis with the therapeutic dosing schedule as compared to the prophylactic schedule. Both versions of adjuvant arthritis are, however, extremely sensitive to the effects of both non-selective COX inhibitors and COX 2 selective inhibitors where 70-90% inhibition of swelling can be achieved at appropriate doses. These models may be predictive for some of the processes thought to be relevant in rheumatoid arthritis.
Method: Female Wistar rats weighing 150-170 g (housed in standard conditions, 5 animals per cage, with food and water ad libitum) are injected i.d. at the base of the tail with 0.1 ml of mineral oil containing 0.6 mg of lyophilized heat-killed Mycobacterium tuberculosis. The rats are treated orally with COMPOUND A or placebo formulation from day 15 to day 22 (therapeutic dosing schedule) or with COMPOUND A from day 0 to day 14 after immunization (prophylactic dosing schedule). At the end of the experiment, the swelling of the tarsal joints is measured by means of a micro-caliper. For the comparison study to Diclofenac both compounds are given from day 15 to day 29 with readouts at day 22 and 29. Percentage inhibition of paw swelling is calculated by reference to placebo treated arthritic animals (0% inhibition) and placebo treated normal animals (100% inhibition). Five animals are used per group. Data are analyzed using Kruskal-Wallis non-parametric ANOVA followed by Dunn's Multiple Comparison test.

[4] = Tolerability relative to effective dose in chronic disease models (general statement); type: in vivo; details: doses more than 10 times higher than the effective dose in chronic disease models
[5] = 0.3 mg/kg/day p.o., 7 day treatment (Table 7)
[6] = 1 mg/kg/day p.o., 7 day treatment (Table 7)
[7] = 1.25 mg/kg/day p.o., 7 days treatment, readout day 22 (Table 8)
[8] = 1.25 mg/kg/day p.o., 14 days treatment, readout day 29 (Table 8)
[9] = 2.5 mg/kg/day p.o., 7 days treatment, readout day 22 (Table 8)
[10] = 2.5 mg/kg/day p.o., 14 days treatment, readout day 29 (Table 8)
[11] = 3 mg/kg/day p.o., 7 day treatment (Table 7)
[12] = 5 mg/kg/day p.o., 7 days treatment, readout day 22 (Table 8)

For `COC1=Nc2cc(Cl)ccc2/C(=C/C(=O)O)c2sc(Cl)cc21` [COMPOUND A, [2,7-Dichloro-10-methoxy-3-thia-9-aza-benzo[f]azulen-(4Z)-ylidene]-acetic acid], the “hind paw diameter, mean ± SEM” value ([1]; 0.3 mg/kg group, Day 0 (start of treatment)) was 5.406 ± 0.448 mm, the “hind paw diameter, mean ± SEM” value ([1]; 0.3 mg/kg group, Day −12 (before immunization)) was 3.069 ± 0.016 mm and the “median inhibition of swelling, analysis of the AUC during day 0 to 11” value (from here on “median inhibition of swelling”) ([1]; 0.3 mg/kg per day p.o.) was 29±9.2%. The “Effect on hind paw swelling” value ([1]; 0.3 mg/kg per day p.o., Day 0-11 (AUC)) was −29 ± 9.2%, the “Effect on hind paw swelling” value ([1]; 0.3 mg/kg per day p.o., Day 2) was −33% ** and the “Effect on hind paw swelling” value ([1]; 0.3 mg/kg per day p.o., Day 7) was −31% *. For the same compound, the “Effect on hind paw swelling” value ([1]; 0.3 mg/kg per day p.o., Day 11) was −20%, the “hind paw diameter, mean ± SEM” value ([1]; 0.3 mg/kg per day p.o., Day 11 (end of treatment)) was 4.417 ± 0.079 mm and the “hind paw diameter, mean ± SEM” value ([1]; 1 mg/kg group, Day 0 (start of treatment)) was 5.350 ± 0.344 mm. The “hind paw diameter, mean ± SEM” value ([1]; 1 mg/kg group, Day −12 (before immunization)) was 3.107 ± 0.046 mm, the “median inhibition of swelling” value ([1]; 1 mg/kg per day p.o.) was 37±6.8% and the “Effect on hind paw swelling” value ([1]; 1 mg/kg per day p.o., Day 0-11 (AUC)) was −37 ± 6.8%. For the same compound, the “Effect on hind paw swelling” value ([1]; 1 mg/kg per day p.o., Day 2) was −40% **, the “Effect on hind paw swelling” value ([1]; 1 mg/kg per day p.o., Day 7) was −38% ** and the “Effect on hind paw swelling” value ([1]; 1 mg/kg per day p.o., Day 11) was −47% ***. For the same compound, the “hind paw diameter, mean ± SEM” value ([1]; 1 mg/kg per day p.o., Day 11 (end of treatment)) was 3.983 ± 0.064 mm, the “hind paw diameter, mean ± SEM” value ([1]; 3 mg/kg group, Day 0 (start of treatment)) was 5.379 ± 0.224 mm and the “hind paw diameter, mean ± SEM” value ([1]; 3 mg/kg group, Day −12 (before immunization)) was 3.136 ± 0.026 mm. The “median inhibition of swelling” value ([1]; 3 mg/kg per day p.o.) was 51±7.1%, the “Effect on hind paw swelling” value ([1]; 3 mg/kg per day p.o., Day 0-11 (AUC)) was −51 ± 7.1% and the “Effect on hind paw swelling” value ([1]; 3 mg/kg per day p.o., Day 2) was −59% ***. The “Effect on hind paw swelling” value ([1]; 3 mg/kg per day p.o., Day 7) was −47% ***, the “Effect on hind paw swelling” value ([1]; 3 mg/kg per day p.o., Day 11) was −71% *** and the “hind paw diameter, mean ± SEM” value ([1]; 3 mg/kg per day p.o., Day 11 (end of treatment)) was 3.592 ± 0.085 mm. The “hind paw diameter, mean ± SEM” value ([1]; 9 mg/kg group, Day 0 (start of treatment)) was 5.364 ± 0.231 mm, the “hind paw diameter, mean ± SEM” value ([1]; 9 mg/kg group, Day −12 (before immunization)) was 3.043 ± 0.028 mm and the “median inhibition of swelling” value ([1]; 9 mg/kg per day p.o.) was 67±5.4%. The “Effect on hind paw swelling” value ([1]; 9 mg/kg per day p.o., Day 0-11 (AUC)) was −67 ± 5.4%, the “Effect on hind paw swelling” value ([1]; 9 mg/kg per day p.o., Day 2) was −69% *** and the “Effect on hind paw swelling” value ([1]; 9 mg/kg per day p.o., Day 7) was −75% ***. For the same compound, the “Effect on hind paw swelling” value ([1]; 9 mg/kg per day p.o., Day 11) was −90% ***, the “hind paw diameter, mean ± SEM” value ([1]; 9 mg/kg per day p.o., Day 11 (end of treatment)) was 3.275 ± 0.038 mm and the “detrimental effect on body weight gain” value ([1]; 0.3 to 9 mg/kg per day p.o., 11 days) was “not observed; also recorded: does not interfere with body weight gain”. For the same compound, the “Bone apposition, effect on histological score” value ([2]; 0.3 mg/kg/day p.o.) was “+4%”, the “Cartilage damage, effect on histological score” value ([2]; 0.3 mg/kg/day p.o.) was −6% and the “Infiltration of cells, effect on histological score” value ([2]; 0.3 mg/kg/day p.o.) was “+8%”. For the same compound, the “Loss of PG, effect on histological score” value ([2]; 0.3 mg/kg/day p.o.) was “+1%”, the “Bone apposition, effect on histological score” value ([2]; 1 mg/kg/day p.o.) was −28% and the “Cartilage damage, effect on histological score” value ([2]; 1 mg/kg/day p.o.) was −24%. For the same compound, the “Infiltration of cells, effect on histological score” value ([2]; 1 mg/kg/day p.o.) was −7%, the “Loss of PG, effect on histological score” value ([2]; 1 mg/kg/day p.o.) was −13% and the “Bone apposition, effect on histological score” value ([2]; 3 mg/kg/day p.o.) was −35% *. For the same compound, the “Cartilage damage, effect on histological score” value ([2]; 3 mg/kg/day p.o.) was −40% *, the “Infiltration of cells, effect on histological score” value ([2]; 3 mg/kg/day p.o.) was −25% and the “Loss of PG, effect on histological score” value ([2]; 3 mg/kg/day p.o.) was −28% *. The “Bone apposition, effect on histological score” value ([2]; 9 mg/kg/day p.o.) was −51% **, the “Cartilage damage, effect on histological score” value ([2]; 9 mg/kg/day p.o.) was −56% *** and the “Infiltration of cells, effect on histological score” value ([2]; 9 mg/kg/day p.o.) was −34% **. For the same compound, the “Loss of PG, effect on histological score” value ([2]; 9 mg/kg/day p.o.) was −40% *, the “% inhibition” value [3, 5] was 15.8 * % and the “Swelling (mm) ± S.D.” value [3, 5] was 6.79 ± 0.9 mm. The “% inhibition” value [3, 6] was 39.0 * %, the “Swelling (mm) ± S.D.” value [3, 6] was 4.92 ± 0.63 mm and the “% inhibition” value [3, 7] was 51.0 * %. For the same compound, the “Swelling (mm) ± S.D.” value [3, 7] was 4.22 ± 0.57 mm, the “% inhibition” value [3, 8] was 60.3 * % and the “Swelling (mm) ± S.D.” value [3, 8] was 3.06 ± 0.63 mm. The “% inhibition” value [3, 9] was 60.5 * %, the “Swelling (mm) ± S.D.” value [3, 9] was 3.40 ± 0.92 mm and the “% inhibition” value [3, 10] was 62.0 * %. For the same compound, the “Swelling (mm) ± S.D.” value [3, 10] was 2.93 ± 0.80 mm, the “% inhibition” value [3, 11] was 45.0 * % and the “Swelling (mm) ± S.D.” value [3, 11] was 4.41 ± 0.59 mm. The “% inhibition” value [3, 12] was 65.0 * %, the “Swelling (mm) ± S.D.” value [3, 12] was 2.94 ± 1.28 mm and the “Swelling (mm) ± S.D.” value ([3]; 5 mg/kg/day p.o., 14 days treatment, readout day 29 (Table 8)) was 2.23 ± 0.66 mm. For the same compound, the “Swelling (mm) ± S.D.” value ([3]; 9 mg/kg/day p.o., 7 day treatment (Table 7)) was 2.84 ± 0.73 mm, the ED50 ([3]; 336 h, 2 week treatment schedule) was < 1.25 mg/kg and the ED50 ([3]; po, 168 h, p.o., one week treatment schedule) was ≤ 1.25 mg/kg. For the same compound, the tolerability [4] was “very well tolerated”.

Source: patent US8258128B2, “Organic compounds” (Novartis AG, priority 2006, dated 2012)
